Measured values taken from the kinase profiling compilation of Christmann-Franck et al. (2016).

Tests used:
Experiment in all cases: radiometric filter-binding kinase assay
ERBB4 (human) = ERBB4 (human) (UniProt Q15303)
PIM1 (human) = PIM1 (human) (UniProt P11309)
PKN2 (human) = PKN2 (human) (UniProt Q16513)
EPHB2 (human) = EPHB2 (human) (UniProt P29323)
IGF1R (human) = IGF1R (human) (UniProt P08069)
LCK (mouse) = conditions: accession and sequence are those of the human protein
ABL1 (human) = ABL1 (human) (UniProt P00519)
HIPK1 (human) = HIPK1 (human) (UniProt Q86Z02)
[1] = tested on: RPS6KB1 (human), P23443 [T412E]
EEF2K (human) = EEF2K (human) (UniProt O00418)
NUAK1 (human) = NUAK1 (human) (UniProt O60285)
STK3 (human) = STK3 (human) (UniProt Q13188)
TBK1 (human) = TBK1 (human) (UniProt Q9UHD2)
MAPK14 (human) = MAPK14 (human) (UniProt Q16539)
MAPK3 (human) = MAPK3 (human) (UniProt P27361)
CLK2 (human) = CLK2 (human) (UniProt P49760)
MAP3K11 (human) = MAP3K11 (human) (UniProt Q16584)
ROCK2 (rat) = conditions: accession and sequence are those of the human protein
BTK (human) = BTK (human) (UniProt Q06187)
CSNK2A1 (human) = CSNK2A1 (human) (UniProt P68400)
FLT1 (human) = FLT1 (human) (UniProt P17948)
IKBKB (human) = IKBKB (human) (UniProt O14920)
CaMK1 (human) = CaMK1 (human) (UniProt Q14012)
MARK1 (human) = MARK1 (human) (UniProt Q9P0L2)
CHEK1 (human) = CHEK1 (human) (UniProt O14757)
MAP2K1 (human) = MAP2K1 (human) (UniProt Q02750)
BRSK1 (human) = BRSK1 (human) (UniProt Q8TDC3)
TEK (human) = TEK (human) (UniProt Q02763)

Chain of ERBB4 (human) (Q15303 whole entry, looked up): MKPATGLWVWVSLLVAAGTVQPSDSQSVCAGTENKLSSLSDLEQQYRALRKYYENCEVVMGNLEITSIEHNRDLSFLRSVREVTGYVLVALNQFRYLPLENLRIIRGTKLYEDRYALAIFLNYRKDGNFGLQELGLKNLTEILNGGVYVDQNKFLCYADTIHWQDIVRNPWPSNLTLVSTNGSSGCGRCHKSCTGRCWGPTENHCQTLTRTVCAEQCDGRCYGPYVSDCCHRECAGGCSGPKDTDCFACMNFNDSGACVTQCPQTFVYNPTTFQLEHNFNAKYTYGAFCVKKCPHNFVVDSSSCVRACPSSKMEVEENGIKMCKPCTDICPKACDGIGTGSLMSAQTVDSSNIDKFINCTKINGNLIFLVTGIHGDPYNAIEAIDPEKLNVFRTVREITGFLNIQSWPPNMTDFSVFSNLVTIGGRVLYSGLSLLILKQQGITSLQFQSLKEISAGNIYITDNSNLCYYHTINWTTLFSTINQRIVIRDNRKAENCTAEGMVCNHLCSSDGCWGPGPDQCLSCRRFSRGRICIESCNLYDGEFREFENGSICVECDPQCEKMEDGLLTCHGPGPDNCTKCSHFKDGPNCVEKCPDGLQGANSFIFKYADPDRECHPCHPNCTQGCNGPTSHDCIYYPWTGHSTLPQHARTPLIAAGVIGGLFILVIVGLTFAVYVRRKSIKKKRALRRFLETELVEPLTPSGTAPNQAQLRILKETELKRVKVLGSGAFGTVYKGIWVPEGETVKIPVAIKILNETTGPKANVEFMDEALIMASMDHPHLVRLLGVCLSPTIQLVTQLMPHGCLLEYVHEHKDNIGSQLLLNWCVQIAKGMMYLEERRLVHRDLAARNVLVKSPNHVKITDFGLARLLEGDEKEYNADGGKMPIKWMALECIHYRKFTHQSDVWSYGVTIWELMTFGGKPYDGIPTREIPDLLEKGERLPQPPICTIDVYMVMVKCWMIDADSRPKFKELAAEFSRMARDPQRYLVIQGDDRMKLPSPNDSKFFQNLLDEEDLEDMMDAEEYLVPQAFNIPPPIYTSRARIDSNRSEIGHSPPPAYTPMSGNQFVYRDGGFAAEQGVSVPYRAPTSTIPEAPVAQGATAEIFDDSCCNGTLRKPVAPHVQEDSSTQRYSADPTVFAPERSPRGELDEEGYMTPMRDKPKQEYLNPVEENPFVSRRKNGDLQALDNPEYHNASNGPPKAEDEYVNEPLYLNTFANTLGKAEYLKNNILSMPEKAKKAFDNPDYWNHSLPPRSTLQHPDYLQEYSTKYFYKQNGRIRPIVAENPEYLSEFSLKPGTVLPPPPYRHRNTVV
Chain of BTK (human) (Q06187 whole entry, looked up): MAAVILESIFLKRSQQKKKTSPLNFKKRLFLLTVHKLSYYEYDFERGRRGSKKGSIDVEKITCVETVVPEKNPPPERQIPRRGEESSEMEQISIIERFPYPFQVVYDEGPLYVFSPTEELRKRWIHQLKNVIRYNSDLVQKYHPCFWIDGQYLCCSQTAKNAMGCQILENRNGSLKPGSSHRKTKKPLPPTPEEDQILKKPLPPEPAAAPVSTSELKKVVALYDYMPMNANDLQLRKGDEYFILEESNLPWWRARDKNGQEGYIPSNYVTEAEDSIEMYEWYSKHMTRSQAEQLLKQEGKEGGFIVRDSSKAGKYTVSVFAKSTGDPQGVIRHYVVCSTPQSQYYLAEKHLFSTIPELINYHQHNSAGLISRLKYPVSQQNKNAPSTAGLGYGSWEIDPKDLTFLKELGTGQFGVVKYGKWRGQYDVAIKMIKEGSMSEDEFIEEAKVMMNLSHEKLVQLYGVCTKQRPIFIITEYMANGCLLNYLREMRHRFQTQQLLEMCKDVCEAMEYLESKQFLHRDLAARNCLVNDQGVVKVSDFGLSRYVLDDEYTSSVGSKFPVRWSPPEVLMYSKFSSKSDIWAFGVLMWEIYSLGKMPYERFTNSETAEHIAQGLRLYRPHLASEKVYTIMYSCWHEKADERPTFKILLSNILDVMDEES
Chain of STK3 (human) (Q13188 whole entry, looked up): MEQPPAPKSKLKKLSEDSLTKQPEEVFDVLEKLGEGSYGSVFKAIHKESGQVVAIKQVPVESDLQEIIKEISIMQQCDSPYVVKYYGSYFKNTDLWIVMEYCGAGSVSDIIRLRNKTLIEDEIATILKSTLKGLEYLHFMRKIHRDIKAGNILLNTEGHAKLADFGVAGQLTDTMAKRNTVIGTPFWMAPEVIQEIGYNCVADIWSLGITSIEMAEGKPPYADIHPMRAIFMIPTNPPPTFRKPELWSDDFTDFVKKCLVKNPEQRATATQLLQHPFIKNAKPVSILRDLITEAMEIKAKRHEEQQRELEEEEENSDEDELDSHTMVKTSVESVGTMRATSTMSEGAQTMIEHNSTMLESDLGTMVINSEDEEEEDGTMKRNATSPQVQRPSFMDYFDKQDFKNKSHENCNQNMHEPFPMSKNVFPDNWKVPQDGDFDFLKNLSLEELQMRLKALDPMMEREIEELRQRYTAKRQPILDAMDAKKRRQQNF
Chain of BRSK1 (human) (Q8TDC3 whole entry, looked up): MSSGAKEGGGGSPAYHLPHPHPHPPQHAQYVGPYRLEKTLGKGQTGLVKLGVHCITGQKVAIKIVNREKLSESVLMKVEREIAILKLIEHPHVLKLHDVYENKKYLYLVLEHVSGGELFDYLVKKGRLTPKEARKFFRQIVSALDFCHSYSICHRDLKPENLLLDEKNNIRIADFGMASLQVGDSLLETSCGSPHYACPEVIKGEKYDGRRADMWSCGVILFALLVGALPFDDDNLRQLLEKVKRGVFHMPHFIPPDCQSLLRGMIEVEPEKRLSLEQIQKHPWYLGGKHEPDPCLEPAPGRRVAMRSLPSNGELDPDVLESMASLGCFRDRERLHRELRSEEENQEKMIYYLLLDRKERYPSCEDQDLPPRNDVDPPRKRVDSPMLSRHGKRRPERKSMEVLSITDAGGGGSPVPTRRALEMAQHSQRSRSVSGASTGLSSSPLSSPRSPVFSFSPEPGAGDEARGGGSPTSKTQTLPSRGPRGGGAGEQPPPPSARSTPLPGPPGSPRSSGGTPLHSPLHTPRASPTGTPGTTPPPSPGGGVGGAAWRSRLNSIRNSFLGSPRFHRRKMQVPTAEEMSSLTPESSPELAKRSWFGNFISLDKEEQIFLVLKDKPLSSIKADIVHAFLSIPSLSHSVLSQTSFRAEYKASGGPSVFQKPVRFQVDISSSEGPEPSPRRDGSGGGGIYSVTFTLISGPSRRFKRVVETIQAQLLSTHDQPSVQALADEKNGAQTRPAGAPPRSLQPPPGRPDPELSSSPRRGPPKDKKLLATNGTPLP
Chain of IGF1R (human) (P08069 whole entry, looked up): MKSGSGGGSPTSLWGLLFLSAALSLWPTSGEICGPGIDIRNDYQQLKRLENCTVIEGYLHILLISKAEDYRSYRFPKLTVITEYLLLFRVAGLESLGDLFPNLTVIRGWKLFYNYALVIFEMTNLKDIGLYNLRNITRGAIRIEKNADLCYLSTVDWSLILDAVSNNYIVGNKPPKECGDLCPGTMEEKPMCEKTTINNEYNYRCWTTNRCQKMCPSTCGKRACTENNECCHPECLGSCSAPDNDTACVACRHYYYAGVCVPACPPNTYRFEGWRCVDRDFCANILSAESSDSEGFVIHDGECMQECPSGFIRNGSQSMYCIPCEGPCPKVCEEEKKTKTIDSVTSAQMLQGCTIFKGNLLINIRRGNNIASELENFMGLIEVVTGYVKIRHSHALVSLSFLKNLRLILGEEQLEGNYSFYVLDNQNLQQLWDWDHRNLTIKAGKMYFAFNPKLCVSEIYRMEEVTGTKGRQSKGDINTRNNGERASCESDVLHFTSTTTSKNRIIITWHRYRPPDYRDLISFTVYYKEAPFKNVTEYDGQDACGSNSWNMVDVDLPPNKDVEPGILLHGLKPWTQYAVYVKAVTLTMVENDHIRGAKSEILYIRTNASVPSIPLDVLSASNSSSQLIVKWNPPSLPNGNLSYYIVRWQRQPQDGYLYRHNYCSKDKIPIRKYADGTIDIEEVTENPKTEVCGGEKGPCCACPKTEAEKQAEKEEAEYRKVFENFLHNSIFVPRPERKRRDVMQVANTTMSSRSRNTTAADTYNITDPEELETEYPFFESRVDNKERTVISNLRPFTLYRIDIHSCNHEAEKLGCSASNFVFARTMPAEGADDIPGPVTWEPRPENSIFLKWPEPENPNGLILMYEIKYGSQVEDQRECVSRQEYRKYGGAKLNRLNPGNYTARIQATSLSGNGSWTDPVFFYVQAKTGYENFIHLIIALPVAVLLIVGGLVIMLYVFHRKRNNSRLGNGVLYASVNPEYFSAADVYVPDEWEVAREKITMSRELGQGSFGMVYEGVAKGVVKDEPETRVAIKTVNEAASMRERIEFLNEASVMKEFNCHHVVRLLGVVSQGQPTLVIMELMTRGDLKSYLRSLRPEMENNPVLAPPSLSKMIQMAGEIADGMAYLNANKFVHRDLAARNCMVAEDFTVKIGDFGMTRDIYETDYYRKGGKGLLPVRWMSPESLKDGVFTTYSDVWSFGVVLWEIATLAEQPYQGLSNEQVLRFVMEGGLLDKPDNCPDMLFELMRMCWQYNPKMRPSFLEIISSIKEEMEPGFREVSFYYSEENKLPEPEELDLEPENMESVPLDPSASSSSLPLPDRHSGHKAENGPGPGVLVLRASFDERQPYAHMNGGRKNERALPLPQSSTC
Chain of MAPK3 (human) (P27361 whole entry, looked up): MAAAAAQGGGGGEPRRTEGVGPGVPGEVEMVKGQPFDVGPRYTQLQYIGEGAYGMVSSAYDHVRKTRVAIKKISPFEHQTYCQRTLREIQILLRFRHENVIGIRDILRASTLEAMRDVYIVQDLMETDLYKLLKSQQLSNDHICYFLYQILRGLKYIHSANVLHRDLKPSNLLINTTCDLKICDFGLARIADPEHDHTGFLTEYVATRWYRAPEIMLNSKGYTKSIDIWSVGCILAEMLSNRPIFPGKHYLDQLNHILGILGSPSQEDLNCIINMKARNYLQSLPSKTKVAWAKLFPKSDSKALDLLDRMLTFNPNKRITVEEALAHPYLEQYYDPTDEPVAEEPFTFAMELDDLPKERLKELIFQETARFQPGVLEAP

residual activity (ERBB4 (human); compound 0.1 µM): 105% | residual activity (ERBB4 (human); compound 1.0 µM): 76.8% | residual activity (ERBB4 (human); compound 10.0 µM): 36.9% | residual activity (PIM1 (human); compound 0.1 µM): 120% | residual activity (PIM1 (human); compound 1.0 µM): 117% | residual activity (PIM1 (human); compound 10.0 µM): 87.4% | residual activity (PKN2 (human); compound 0.1 µM): 102% | residual activity (PKN2 (human); compound 1.0 µM): 93.3% | residual activity (PKN2 (human); compound 10.0 µM): 78.6% | residual activity (EPHB2 (human); compound 0.1 µM): 88.5% | residual activity (EPHB2 (human); compound 1.0 µM): 23.4% | residual activity (EPHB2 (human); compound 10.0 µM): 3.11% | residual activity (IGF1R (human); compound 0.1 µM): 107% | residual activity (IGF1R (human); compound 1.0 µM): 84.8% | residual activity (IGF1R (human); compound 10.0 µM): 6.46% | residual activity (LCK (mouse); compound 0.1 µM): 12.7% | residual activity (LCK (mouse); compound 1.0 µM): 0.851% | residual activity (LCK (mouse); compound 10.0 µM): 5.77% | residual activity (ABL1 (human); compound 0.1 µM): 51.4% | residual activity (ABL1 (human); compound 1.0 µM): 3.77% | residual activity (ABL1 (human); compound 10.0 µM): 0.874% | residual activity (HIPK1 (human); compound 0.1 µM): 95% | residual activity (HIPK1 (human); compound 1.0 µM): 70.8% | residual activity (HIPK1 (human); compound 10.0 µM): 28.7% | residual activity ([1]; compound 0.1 µM): 107% | residual activity ([1]; compound 1.0 µM): 63.6% | residual activity ([1]; compound 10.0 µM): 12.9% | residual activity (EEF2K (human); compound 0.1 µM): 110% | residual activity (EEF2K (human); compound 1.0 µM): 102% | residual activity (EEF2K (human); compound 10.0 µM): 100% | residual activity (NUAK1 (human); compound 0.1 µM): 85.8% | residual activity (NUAK1 (human); compound 1.0 µM): 90.5% | residual activity (NUAK1 (human); compound 10.0 µM): 84.9% | residual activity (STK3 (human); compound 0.1 µM): 111% | residual activity (STK3 (human); compound 1.0 µM): 124% | residual activity (STK3 (human); compound 10.0 µM): 91.5% | residual activity (TBK1 (human); compound 0.1 µM): 113% | residual activity (TBK1 (human); compound 1.0 µM): 100% | residual activity (TBK1 (human); compound 10.0 µM): 96% | residual activity (MAPK14 (human); compound 0.1 µM): 41% | residual activity (MAPK14 (human); compound 1.0 µM): 3.48% | residual activity (MAPK14 (human); compound 10.0 µM): 2.61% | residual activity (MAPK3 (human); compound 0.1 µM): 99% | residual activity (MAPK3 (human); compound 1.0 µM): 103% | residual activity (MAPK3 (human); compound 10.0 µM): 99.7% | residual activity (CLK2 (human); compound 0.1 µM): 115% | residual activity (CLK2 (human); compound 1.0 µM): 104% | residual activity (CLK2 (human); compound 10.0 µM): 75.8% | residual activity (MAP3K11 (human); compound 0.1 µM): 95.1% | residual activity (MAP3K11 (human); compound 1.0 µM): 50.3% | residual activity (MAP3K11 (human); compound 10.0 µM): 8.66% | residual activity (ROCK2 (rat); compound 0.1 µM): 91.7% | residual activity (ROCK2 (rat); compound 1.0 µM): 71.2% | residual activity (ROCK2 (rat); compound 10.0 µM): 25.5% | residual activity (BTK (human); compound 0.1 µM): 103% | residual activity (BTK (human); compound 1.0 µM): 85.3% | residual activity (BTK (human); compound 10.0 µM): 34.2% | residual activity (CSNK2A1 (human); compound 0.1 µM): 90.2% | residual activity (CSNK2A1 (human); compound 1.0 µM): 94.1% | residual activity (CSNK2A1 (human); compound 10.0 µM): 98.5% | residual activity (FLT1 (human); compound 0.1 µM): 69.5% | residual activity (FLT1 (human); compound 1.0 µM): 15.2% | residual activity (FLT1 (human); compound 10.0 µM): 2.74% | residual activity (IKBKB (human); compound 0.1 µM): 114% | residual activity (IKBKB (human); compound 1.0 µM): 101% | residual activity (IKBKB (human); compound 10.0 µM): 44.6% | residual activity (CaMK1 (human); compound 0.1 µM): 68.7% | residual activity (CaMK1 (human); compound 1.0 µM): 17.2% | residual activity (CaMK1 (human); compound 10.0 µM): 3.79% | residual activity (MARK1 (human); compound 0.1 µM): 114% | residual activity (MARK1 (human); compound 1.0 µM): 97.2% | residual activity (MARK1 (human); compound 10.0 µM): 103% | residual activity (CHEK1 (human); compound 0.1 µM): 114% | residual activity (CHEK1 (human); compound 1.0 µM): 105% | residual activity (CHEK1 (human); compound 10.0 µM): 110% | residual activity (MAP2K1 (human); compound 0.1 µM): 106% | residual activity (MAP2K1 (human); compound 1.0 µM): 108% | residual activity (MAP2K1 (human); compound 10.0 µM): 93.2% | residual activity (BRSK1 (human); compound 0.1 µM): 101% | residual activity (BRSK1 (human); compound 1.0 µM): 96.2% | residual activity (BRSK1 (human); compound 10.0 µM): 109% | residual activity (TEK (human); compound 0.1 µM): 95.2% | residual activity (TEK (human); compound 1.0 µM): 91.2% | residual activity (TEK (human); compound 10.0 µM): 60.4%
SMILES: CCN1CCN(Cc2ccc(NC(=O)c3ccc(C)c(Oc4ccnc5[nH]ccc45)c3)cc2C(F)(F)F)CC1
